Laboratory results reported in PMC9177597, “Structural basis of substrate recognition and translocation by human very long-chain fatty acid transporter ABCD1” (Nature Communications, 2022).
Substitutions are numbered along the chain they refer to.

Experiments:
Assay in all cases: substrate-stimulated ATPase assay (colorimetric Pi release)
Type in all cases: biochemical
Conditions in all cases: 5 μM C22:0-CoA, 2 mM ATP, 2 mM MgCl2, LMNG + CHS, pH 7.5, 37 °C
chABCD1 (chimeric ABCD1) [1] = target: T1, chABCD1 (chimeric ABCD1) (Homo sapiens, UniProt P33897, R401Q)
T1 construct: single polypeptide: N-terminal FLAG tag, PMP-4 residues 1-65 replacing human ABCD1 residues 1-63, then human ABCD1 64-745; HEK293F; homodimer; LMNG/CHS for assays, digitonin for cryo-EM; with PMP-4 (peroxisomal membrane protein related, ABCD1 homolog, Caenorhabditis elegans; N-terminal segment fused to the target chain)
T1 sequence (P33897 64-745 R401Q): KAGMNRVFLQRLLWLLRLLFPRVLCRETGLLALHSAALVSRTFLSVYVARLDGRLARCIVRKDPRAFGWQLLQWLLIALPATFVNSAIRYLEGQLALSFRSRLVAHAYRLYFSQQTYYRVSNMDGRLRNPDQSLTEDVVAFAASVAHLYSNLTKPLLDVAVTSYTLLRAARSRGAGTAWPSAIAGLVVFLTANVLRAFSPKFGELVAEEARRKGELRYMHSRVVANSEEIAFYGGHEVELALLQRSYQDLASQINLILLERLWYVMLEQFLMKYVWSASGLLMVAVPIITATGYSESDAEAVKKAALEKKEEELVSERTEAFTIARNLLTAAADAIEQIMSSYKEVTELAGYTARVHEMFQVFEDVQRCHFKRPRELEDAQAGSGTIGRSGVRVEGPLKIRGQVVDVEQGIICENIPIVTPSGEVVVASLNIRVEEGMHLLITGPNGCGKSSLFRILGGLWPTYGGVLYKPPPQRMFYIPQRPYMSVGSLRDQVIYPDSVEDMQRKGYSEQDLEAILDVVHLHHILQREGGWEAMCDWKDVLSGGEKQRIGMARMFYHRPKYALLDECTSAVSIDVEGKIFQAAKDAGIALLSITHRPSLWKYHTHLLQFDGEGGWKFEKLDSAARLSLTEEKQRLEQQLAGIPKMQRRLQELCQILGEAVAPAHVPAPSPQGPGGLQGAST

chABCD1 (chimeric ABCD1) [2] = target: T2, chABCD1 (chimeric ABCD1) (Homo sapiens, UniProt P33897, R152A)
T2 construct: single polypeptide: N-terminal FLAG tag, PMP-4 residues 1-65 replacing human ABCD1 residues 1-63, then human ABCD1 64-745; HEK293F; homodimer; LMNG/CHS for assays, digitonin for cryo-EM; with PMP-4 (peroxisomal membrane protein related, ABCD1 homolog, Caenorhabditis elegans; N-terminal segment fused to the target chain)
T2 sequence (P33897 64-745 R152A): T1 sequence (P33897 64-745 R401Q) with R89A, Q338R

chABCD1 (chimeric ABCD1) [3] = target: T3, chABCD1 (chimeric ABCD1) (Homo sapiens, UniProt P33897, G343V)
T3 construct: single polypeptide: N-terminal FLAG tag, PMP-4 residues 1-65 replacing human ABCD1 residues 1-63, then human ABCD1 64-745; HEK293F; homodimer; LMNG/CHS for assays, digitonin for cryo-EM; with PMP-4 (peroxisomal membrane protein related, ABCD1 homolog, Caenorhabditis elegans; N-terminal segment fused to the target chain)
T3 sequence (P33897 64-745 G343V): T1 sequence (P33897 64-745 R401Q) with G280V, Q338R

CCCCCCCCCCCCCCCCCCCCCC(=O)SCCNC(=O)CCNC(=O)[C@H](O)C(C)(C)COP(=O)(O)OP(=O)(O)OC[C@H]1O[C@@H](n2cnc3c(N)ncnc32)[C@H](O)[C@@H]1OP(=O)(O)O [C22:0-CoA]
relative ATPase activity (chABCD1 (chimeric ABCD1) [1]): displayed significantly decreased substrate-simulated ATPase activity, compared to the wild-type | relative ATPase activity (chABCD1 (chimeric ABCD1) [2]): displayed significantly decreased substrate-simulated ATPase activity, compared to the wild-type | relative ATPase activity (chABCD1 (chimeric ABCD1) [3]): displayed significantly decreased substrate-simulated ATPase activity, compared to the wild-type
